These results are taken from patent publication US20100331305A1, “OXO-HETEROCYCLE FUSED PYRIMIDINE COMPOUNDS, COMPOSITIONS AND METHODS OF USE” (Genentech, Inc., priority 2009, published 2010).

The target in assay [1] is mTOR enzyme (mTOR(1360-2549)+GBL) (Homo sapiens, UniProt P42345). Kind of assay: In vitro mTOR kinase assay (TR-FRET). The assay is classed as biochemical. Conditions: 0.25 nM mTOR+GBL, 8 uM ATP; values tied to compounds by order of Table 1; 'x or y' = two alternative values for separated diastereomers of unassigned stereochemistry; read-out: activity level (Ki) in the mTOR kinase assay. In short, it runs like this: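 Compounds were tested in 10-point dose curves from 10 uM top final concentration. The reaction was stopped with 2 nM Tb-anti-p4E-BP1 (T37/T46) antibody plus 10 mM EDTA for 30 minutes, and phospho-4E-BP1 was detected by TR-FRET. Ki apparent was fitted with the Morrison ATP-competitive tight-binding equation.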
Sequence of mTOR enzyme (mTOR(1360-2549)+GBL) (P42345 1360-2549, species assumed): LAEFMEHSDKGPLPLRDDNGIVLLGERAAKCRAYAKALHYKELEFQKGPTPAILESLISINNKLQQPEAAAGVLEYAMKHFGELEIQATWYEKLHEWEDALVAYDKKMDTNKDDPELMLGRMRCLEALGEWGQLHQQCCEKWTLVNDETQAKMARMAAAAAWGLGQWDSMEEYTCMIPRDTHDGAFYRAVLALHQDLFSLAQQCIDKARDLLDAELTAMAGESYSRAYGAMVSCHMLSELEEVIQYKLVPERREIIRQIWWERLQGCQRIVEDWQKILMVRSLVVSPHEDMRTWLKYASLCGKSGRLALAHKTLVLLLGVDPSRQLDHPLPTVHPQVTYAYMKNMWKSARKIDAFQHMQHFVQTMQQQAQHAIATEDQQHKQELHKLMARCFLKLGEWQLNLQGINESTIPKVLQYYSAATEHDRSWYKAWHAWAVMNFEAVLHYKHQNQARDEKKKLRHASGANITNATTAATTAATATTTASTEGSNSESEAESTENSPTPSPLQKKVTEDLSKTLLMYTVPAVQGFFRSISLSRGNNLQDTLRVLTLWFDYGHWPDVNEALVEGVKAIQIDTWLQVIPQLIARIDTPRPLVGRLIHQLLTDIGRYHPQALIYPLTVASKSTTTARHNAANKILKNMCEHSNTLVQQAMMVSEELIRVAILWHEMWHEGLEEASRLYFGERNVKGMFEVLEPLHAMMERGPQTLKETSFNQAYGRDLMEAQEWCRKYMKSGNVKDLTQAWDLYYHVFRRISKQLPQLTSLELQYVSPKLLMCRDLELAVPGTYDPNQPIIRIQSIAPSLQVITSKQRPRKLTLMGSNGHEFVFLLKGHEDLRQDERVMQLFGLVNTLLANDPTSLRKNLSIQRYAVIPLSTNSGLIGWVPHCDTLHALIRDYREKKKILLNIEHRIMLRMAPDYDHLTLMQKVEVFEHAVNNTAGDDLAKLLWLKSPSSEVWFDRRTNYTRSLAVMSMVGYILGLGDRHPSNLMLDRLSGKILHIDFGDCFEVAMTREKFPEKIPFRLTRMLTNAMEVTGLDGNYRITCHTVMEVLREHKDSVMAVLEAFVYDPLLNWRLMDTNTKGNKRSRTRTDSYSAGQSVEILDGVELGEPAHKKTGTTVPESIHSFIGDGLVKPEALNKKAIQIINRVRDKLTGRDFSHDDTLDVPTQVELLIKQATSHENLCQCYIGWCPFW
Sequence of mTOR enzyme (mTOR(1360-2549)+GBL) (Q9BVC4 whole entry partner, species assumed): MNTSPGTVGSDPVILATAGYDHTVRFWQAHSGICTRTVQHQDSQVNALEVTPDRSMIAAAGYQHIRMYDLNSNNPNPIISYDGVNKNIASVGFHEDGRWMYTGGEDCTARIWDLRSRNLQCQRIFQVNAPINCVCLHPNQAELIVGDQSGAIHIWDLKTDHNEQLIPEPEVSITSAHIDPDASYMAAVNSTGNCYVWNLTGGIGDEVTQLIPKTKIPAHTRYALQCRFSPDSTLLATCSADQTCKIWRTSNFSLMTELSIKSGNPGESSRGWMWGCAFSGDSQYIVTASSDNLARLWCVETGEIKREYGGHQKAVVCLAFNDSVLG

Assay [2] has as its system PC3 cells. Kind of assay: In vitro cell proliferation assay. Type of assay: cell-based, human. The following applies: Homo sapiens, PC-3, with PC3 cells; values tied to compounds by order of Table 1. In short, it runs like this: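 PC3 (or MDAMB361.1) cells, ~10^3/well, settled overnight, then exposed to compound for 3 days; viability read by CellTiter-Glo luminescence (RLU). Alternatively, 4-day compound exposure followed by Alamar Blue for 6 h, fluorescence 544/590 nm; EC50 from sigmoidal dose-response fit.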

In assay [3] the test system is AKT serine-473 phosphorylation in PC-3 cells. Kind of assay: In vitro phospho-AKT serine 473 cellular assay. The assay is classed as cell-based. Conditions: Homo sapiens; PC-3 cells stimulated with EGF; first nine specific compounds; read-out: EC50 activity level, inhibition of AKT serine-473 phosphorylation. Here is the method:
b. In Vitro Phospho-AKT Serine 473 Cellular Assay
The assay measures a test compound's inhibition of AKT serine-473 phosphorylation in human prostate adenocarcinoma derived PC-3 (ATCC CRL-1435) cells that have been stimulated with epidermal growth factor (EGF).
The PC-3 cell line is maintained in RPMI1640 media supplemented with 10% FBS, 2 mM Glutamine, and 10 mM HEPES pH 7.4 at 37° C. in a 5% CO2 humidified incubator.
Cells are seeded in 384-well plates at 7,000 cells/well in 50 μl growth media. After 24 hours, growth media is removed and replaced with RPMI1640 containing no FBS. Cells are treated with 10 concentrations of test compounds or DMSO alone for controls (final DMSO concentration 0.5%) and incubated at 37° C. for 30 minutes. Cells are then stimulated for 10 minutes with 100 ng/ml EGF (final concentration). One column of controls is not stimulated with EGF to observe the signal ratio between stimulated and non-stimulated cells. After 10 minutes, compounds and stimulation media are removed and replaced with 25 μl lysis buffer containing protease inhibitors and phosphatase inhibitors. This buffer contains detergent to bring about cellular disruption. […] Following the transfer of lysate to the MSD plate, AKT in the lysate is captured on the coated antibody by incubation on a shaker at 4° C. for 16 hours. Following the capture step the plate is washed and then incubated for two hours with an antibody to S473 phosphorylated AKT which is conjugated with a Sulfo-Tag. This tag gives a signal when in proximity to the electrode on the base of the MSD plate. Binding the tagged antibody to the captured protein allow detection on a MSD reader.
EC50 values are calculated using MDL Assay Explorer 3.0.1.8 fitting a sigmoidal curve with a variable slope.

For `CCNC(=O)Nc1ccc(-c2nc3c(c(N4CCOC[C@@H]4C)n2)CCCO3)cc1` [Example 16, (S)-1-ethyl-3-(4-(4-(3-methylmorpholino)-6,7-dihydro-5H-pyrano[2,3-d]pyrimidin-2-yl)phenyl)urea], in assay [1], the Ki turned out to be 2 nM. Moreover, the EC50 stood at 231 nM in assay [2] and 10 nM in assay [3].

With `C[C@H]1COCCN1c1nc(-c2ccc(NC(=O)NCC(F)(F)F)cc2)nc2c1COCC2` [Example 23, (S)-1-(4-(4-(3-methylmorpholino)-7,8-dihydro-5H-pyrano[4,3-d]pyrimidin-2-yl)phenyl)-3-(2,2,2-trifluoroethyl)urea], in assay [1], the Ki turned out to be 16 nM. Besides, the EC50 in assay [2] was 993 nM; in assay [3] it was 49 nM.

Regarding `CCNC(=O)Nc1ccc(-c2nc3c(c(N4CCOC[C@@H]4C)n2)COCC3)cc1` [Example 17, (S)-1-ethyl-3-(4-(4-(3-methylmorpholino)-7,8-dihydro-5H-pyrano[4,3-d]pyrimidin-2-yl)phenyl)urea], in assay [1], the Ki turned out to be 4 nM. For the same compound, the EC50 in assay [2] turned out to be 175 nM; in assay [3] it was 22 nM.

With `C[C@H]1COCCN1c1nc(-c2ccc(NC(=O)Nc3ccn(C)n3)cc2)nc2c1COCC2` [Example 21, (S)-1-(1-methyl-1H-pyrazol-3-yl)-3-(4-(4-(3-methylmorpholino)-7,8-dihydro-5H-pyrano[4,3-d]pyrimidin-2-yl)phenyl)urea], the inhibition constant Ki in assay [1] is 3 nM. For the same compound, the EC50 in assay [2] came to 189 nM; in assay [3], 108 nM.

Consider `CCNC(=O)Nc1ccc(-c2nc3c(c(N4CCOC[C@@H]4CC)n2)COCC3)cc1` [Example 19, (S)-1-ethyl-3-(4-(4-(3-ethylmorpholino)-7,8-dihydro-5H-pyrano[4,3-d]pyrimidin-2-yl)phenyl)urea], for which, in assay [1], the Ki is 1 nM. Moreover, the figures for the EC50 in assay [2] and in assay [3] were 88 nM and 6 nM, respectively.
